# Measurements: patent US12116343B2, “Inhibitors of APOL1 and methods of using same” (Vertex Pharmaceuticals Incorporated, priority 2020, dated 2024)
# Biological target: T1, G1 APOL1 (Homo sapiens, UniProt O14791, I384M/S342G)
# T1 construct: expressed in transfected cells
# T1 sequence (O14791 28-398 S342G/I384M): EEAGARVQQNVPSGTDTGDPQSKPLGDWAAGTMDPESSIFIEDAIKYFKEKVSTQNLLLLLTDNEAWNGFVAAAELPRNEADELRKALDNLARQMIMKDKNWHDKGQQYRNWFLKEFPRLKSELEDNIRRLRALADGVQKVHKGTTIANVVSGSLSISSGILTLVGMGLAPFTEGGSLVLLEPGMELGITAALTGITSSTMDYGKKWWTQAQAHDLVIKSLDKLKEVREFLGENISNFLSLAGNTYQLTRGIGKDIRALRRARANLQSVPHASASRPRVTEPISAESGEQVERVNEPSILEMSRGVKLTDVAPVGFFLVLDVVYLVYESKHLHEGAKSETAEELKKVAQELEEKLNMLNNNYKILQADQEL
# Assay: Acute APOL1 Thallium Assay with inducible stable clones of HEK 293 cells
# Assay type: cell-based
# Conditions: HEK 293 T-Rex cells expressing G1 APOL1; read-out: Thallium Assay (IC50)
# Source text: Acute APOL1 Thallium Assay with Inducible Stable Clones of HEK 293 Cells
# Apolipoprotein L1 (APOL1) proteins form potassium-permeable cation pores in the plasma membrane. APOL1 risk variants (G1 and G2) induce greater potassium flux than G0 in HEK293 cells. This assay exploits the permeability of thallium (Tl+) through ligand-gated potassium channels. The dye produces a bright fluorescent signal upon binding to Tl+ conducted through potassium channels. The intensity of the Tl+ signal is proportional to the number of potassium channels in the open state. Therefore, it provides a functional indication of the potassium channel activities. During the initial dye-loading step, the Tl+ indicator dye as an acetoxymethyl (AM) ester enters the cells through passive diffusion. Cytoplasm esterases cleave the AM ester and relieve its active thallium-sensitive form. The cells are then stimulated with Tl+. The increase of fluorescence in the assay represents the influx of Tl+ into the cell specifically through the potassium channel (i.e. through APOL1 pores), providing a functional measurement of potassium channel/pore activity. The Thallium assay is conducted with cells expressing G1 APOL1.
# APOL1 Cell Line (HEK T-Rex Stable Inducible Cell Line) • HEK T-Rex System • Tetracycline (Tet) inducible mammalian expression system. • Stably express the Tet repressor to regulate transcription. • Expression under the full-length CMV promoter. • APOL1 stable inducible cell line Clone used: G1 DC3.25
# Tissue Culture Media • Cell Culture Medium • DMEM+10% FBS+P/S+5 μg/mL blasticidin+1 μg/mL puromycin. • 500 mL DMEM+55 mL FBS+5 mL P/S+280 μL blasticidin S HCl (10 mg/mL)+56 μL puromycin (10 mg/mL). • Cell Assay Medium • DMEM with 2% FBS+pen strep.
# Instruments and Equipment • Nuaire cell culture hood, Cat. No. 540-600 • 37° C./5% CO2 incubator link to robotic arm, Liconic: STX110 • Molecular Devices FLIPR^Tetra High throughput cellular screening system, Cat. No. FT0324, Molecular Devices • ThermoFisher MultiDrop 384, Cat. No. 5840300 • Biotek Microfill, Cat. No. ASF1000A-4145 • BioRad TC10 cell counter, Cat. No. 145-0010 Assay Procedures
# Cells Scaled Up from Frozen Vials • APOL1 G1 3.25 (HEK293 T-Rex) frozen vials: 5 million cells per vial • Step 1, Day 1: Defrost frozen vial into T-225. • Step 2, Day 5: (when 85% confluent): Split one T-225 at 3×10^6 cells per flask. • Step 3, Day 8: Splits cells to set up for the assay plates as described below.
# T-Rex APOL1 HEK cells are split twice per week to keep the confluence state below 85% of the culture flask surface area. Cells can be kept until passage 25. • Cell Culture Medium • DMEM high glucose+10% FBS, +P/S, +5 μg/mL blasticidin, +1 μg/mL puromycin. • 500 mL DMEM, +55 mL FBS, +5 mL P/S, +280 μL blasicidin 10 mg/mL, +56 μL Puromycin 10 mg/mL. • Assay Media • Opti-MEM reduced serum medium from Invitrogen.
# Preparation of Cell Assay Plates • Culture medium is removed from the x cm^2 T-flask by aspiration. • The cell monolayer is rinsed with PBS 1× at room temperature. PBS is removed by aspiration. • Cells are trypsinized using Trypsin. • The flasks are incubated at room temperature for 2-3 minutes. • Complete DMEM medium is then added. Cell suspension is then transferred to a 50 mL Falcon polypropylene tube. • Cells are then counted using a Biorad TC10 cell counter and the required amount of cells are centrifuged at 1200 RPM for 5 minutes. Required amount is 1.3×10^6 cells/mL APOL1 T-Rex HEK cells. • The pellet is suspended in the assay medium. • Using the MultiDrop, add 20 μL to each well (corresponds to 26000 cells total per well) of a 384-well black, transparent, flat bottom Poly-D coated plate. • Tetracycline as prepared in the following section is added to the cells before plating to induce APOL1 expression. • Plates are left at room temperature for 20 to 30 minutes before incubation at 37° C. and 5% CO2. […]
row,Structure (SMILES),IC50 [nM]
1,O=C(N[C@@H](CO)C(F)F)[C@H]1C[C@@H](c2c(-c3ccc(F)cc3)[nH]c3c(F)cc(F)cc32)C1 [Compound 276],250 to 1000
2,O=C([C@H]1C[C@H](c2c(-c3ccc(F)cc3)[nH]c3c(F)cc(F)cc32)C1)N1CCOC(CO)C1 (some centres unmarked) [Compound 151],> 1000
3,O=C(NC1CC(O)C1)[C@H]1C[C@@H](c2c(-c3ccc(F)cc3)[nH]c3c(F)cc(F)cc32)C1 (some centres unmarked) [Compound 239],> 1000
4,O=C(N[C@H]1CCOC1)[C@H]1C[C@@H](c2c(-c3ccc(F)cc3)[nH]c3c(F)cc(F)cc32)C1 [Compound 246],> 1000
5,O=C(N[C@H]1CC[C@H](O)C1)[C@H]1C[C@H](c2c(-c3ccc(F)cc3)[nH]c3c(F)cc(F)cc32)C1 [Compound 187],> 1000
6,O=C1CCC(NC(=O)[C@H]2C[C@@H](c3c(-c4ccc(F)cc4)[nH]c4c(F)cc(F)cc43)C2)C(=O)N1 (some centres unmarked) [Compound 252],> 1000
7,Cn1cnc(CNC(=O)C2(C)CC(c3c(-c4ccc(F)cc4)[nH]c4c(F)cc(F)cc34)C2)c1 (mixture of isomers) [Compound 282],250 to 1000
8,O=C(NC1(CO)CC1)C1(F)CC(c2c(-c3ccc(F)cc3)[nH]c3c(F)cc(F)cc23)C1 (centres unmarked) [Compound 285],< 250
9,O=C(NCC1COC1)[C@H]1C[C@@H](c2c(-c3ccc(F)cc3)[nH]c3c(F)cc(F)cc32)C1 [Compound 248],> 1000
10,O=C(NCC(F)(F)F)[C@H]1C[C@@H](c2c(-c3ccc(F)cc3)[nH]c3c(F)cc(F)cc32)C1 [Compound 260],250 to 1000
11,CC(C)CC(NC(=O)[C@H]1C[C@@H](c2c(-c3ccc(F)cc3)[nH]c3c(F)cc(F)cc32)C1)C(N)=O (some centres unmarked) [Compound 255],> 1000
12,CC1(C(=O)NCCO)CC(c2c(-c3ccc(F)cc3)[nH]c3c(F)cc(F)cc23)C1 (mixture of isomers) [Compound 283],250 to 1000

# Same assay, conditions: Table 24, Compounds 287 to 465; read-out: Thallium Assay (IC50)
row,Structure (SMILES),IC50 [nM]
1,O=C(NCC1(O)CCC1)C1CC(Cc2c(-c3ccc(F)cc3)[nH]c3c(F)cc(F)cc23)C1 (centres unmarked) [Compound 322],> 1000
2,Cc1cc(CNC(=O)C2CC(Cc3c(-c4ccc(F)cc4)[nH]c4c(F)cc(F)cc34)C2)nn1C (centres unmarked) [Compound 340],> 1000
3,Cc1noc(CNC(=O)C2CC(Cc3c(-c4ccc(F)cc4)[nH]c4c(F)cc(F)cc34)C2)n1 (centres unmarked) [Compound 304],> 1000
4,CCNC(=O)NC[C@H]1C[C@H](c2c(-c3ccc(F)cc3)[nH]c3c(F)cc(F)cc32)C1 [Compound 410],> 1000
5,O=C(NCCO)O[C@H]1C[C@H](c2c(-c3ccc(F)cc3)[nH]c3c(F)cc(F)cc32)C1 [Compound 350],250 to 1000
6,CC(C)CC(NCC1CC(c2c(-c3ccc(F)cc3)[nH]c3c(F)cc(F)cc23)C1)C(N)=O (centres unmarked) [Compound 441],> 1000
7,C[C@]1(NC(=O)NC[C@H]2C[C@H](c3c(-c4ccc(F)cc4)[nH]c4c(F)cc(F)cc43)C2)C[C@@H](O)C1 [Compound 408],> 1000
8,O=C(NCc1cocn1)C1CC(Cc2c(-c3ccc(F)cc3)[nH]c3c(F)cc(F)cc23)C1 (centres unmarked) [Compound 341],> 1000
9,O=C(NCc1ccc(=O)[nH]c1)C1CC(Cc2c(-c3ccc(F)cc3)[nH]c3c(F)cc(F)cc23)C1 (centres unmarked) [Compound 346],> 1000
10,O=C(NC(CO)CO)N[C@H]1C[C@H](c2c(-c3ccc(F)cc3)[nH]c3c(F)cc(F)cc32)C1 [Compound 298],> 1000
11,"O=C(NCC(F)F)N1CC(c2c(-c3ccc(F)cc3)[nH]c3c(F)cc(F)cc23)C1 [Compound 465, 3-(5,7-difluoro-2-(4-fluorophenyl)-1H-indol-3-yl)-N-(2,2-difluoroethyl)azetidine-1-carboxamide]",250 to 1000
12,CC(C)(O)CNC(=O)NC[C@H]1C[C@H](c2c(-c3ccc(F)cc3)[nH]c3c(F)cc(F)cc32)C1 [Compound 423],> 1000
13,CC(C)NC(=O)CN[C@H]1C[C@H](c2c(-c3ccc(F)cc3)[nH]c3c(F)cc(F)cc32)C1 [Compound 290],> 1000
14,CC1(C)CC(C)(NC(=O)NC[C@H]2C[C@H](c3c(-c4ccc(F)cc4)[nH]c4c(F)cc(F)cc43)C2)C(=O)O1 (mixture of isomers) [Compound 392],> 1000
15,C[C@H](NCC1CC(c2c(-c3ccc(F)cc3)[nH]c3c(F)cc(F)cc23)C1)C(N)=O (some centres unmarked) [Compound 439],> 1000
16,O=C(NCC1CCNC1=O)NC[C@H]1C[C@H](c2c(-c3ccc(F)cc3)[nH]c3c(F)cc(F)cc32)C1 (some centres unmarked) [Compound 417],> 1000
17,O=C(NCC1CC1)O[C@H]1C[C@H](c2c(-c3ccc(F)cc3)[nH]c3c(F)cc(F)cc32)C1 [Compound 370],> 1000
18,NC(=O)CNC(=O)O[C@H]1C[C@H](c2c(-c3ccc(F)cc3)[nH]c3c(F)cc(F)cc32)C1 [Compound 355],250 to 1000
19,C[C@H](CO)NC(=O)NC[C@H]1C[C@H](c2c(-c3ccc(F)cc3)[nH]c3c(F)cc(F)cc32)C1 [Compound 409],> 1000
20,"CNC(=O)NC[C@H]1C[C@H](c2c(-c3ccc(F)cc3)[nH]c3c(F)cc(F)cc32)C1 [Compound 391, 1-(((1r,3r)-3-(5,7-difluoro-2-(4-fluorophenyl)-1H-indol-3-yl)cyclobutyl)methyl)-3-methylurea]",250 to 1000
21,Cn1cnc(CNC(=O)O[C@H]2C[C@H](c3c(-c4ccc(F)cc4)[nH]c4c(F)cc(F)cc43)C2)c1 [Compound 368],> 1000
22,"CN(CC1CC(c2c(-c3ccc(F)cc3)[nH]c3c(F)cc(F)cc23)C1)C(=O)NCc1cn(C)cn1 (centres unmarked) [Compound 427, 1-((3-(5,7-difluoro-2-(4-fluorophenyl)-1H-indol-3-yl)cyclobutyl)methyl)-1-methyl-3-((1-methyl-1H-imidazol-4-yl)methyl)urea]",> 1000
23,C[C@H](CO)N(C)C(=O)NC[C@H]1C[C@H](c2c(-c3ccc(F)cc3)[nH]c3c(F)cc(F)cc32)C1 [Compound 404],> 1000
24,CC(O)C(C)NC(=O)O[C@H]1C[C@H](c2c(-c3ccc(F)cc3)[nH]c3c(F)cc(F)cc32)C1 (mixture of isomers) [Compound 363],> 1000
25,O=C(NCC(O)C(F)F)C1CC(Cc2c(-c3ccc(F)cc3)[nH]c3c(F)cc(F)cc23)C1 (centres unmarked) [Compound 301],> 1000
26,"C[C@H](CO)NC(=O)C1CCC(c2c(-c3ccc(F)cc3)[nH]c3c(F)cc(F)cc23)C1 (stereo partly drawn) [Compound 463, 3-[5,7-difluoro-2-(4-fluorophenyl)-1H-indol-3-yl]-N-[(1R)-2-hydroxy-1-methyl-ethyl]cyclopentanecarboxamide]",> 1000
27,CN(CC1CC(c2c(-c3ccc(F)cc3)[nH]c3c(F)cc(F)cc23)C1)C(=O)NCCO (centres unmarked) [Compound 431],> 1000
28,Cn1ccnc1CNC(=O)C1CC(Cc2c(-c3ccc(F)cc3)[nH]c3c(F)cc(F)cc23)C1 (centres unmarked) [Compound 338],> 1000
29,CC(C)(O)CCNC(=O)C1CC(Cc2c(-c3ccc(F)cc3)[nH]c3c(F)cc(F)cc23)C1 (centres unmarked) [Compound 327],> 1000
